Tests used:
[1] = in vivo
normal growing eye = test: Effect of rosiglitazone on normal chick eyes; type: in vivo; settings: 5 mM, 10 μL intravitreal injection once a day for 3 days, two time points (FIG. 2)
[2] = system: lens-induced myopia (LIM) chick eyes; test: Lens-induced myopia (LIM) in chicks, axial length by ultrasonic A-scan; type: in vivo
Method: (§1) Chicks age day 7 are divided into 2 groups, lens-induced myopia (LIM) and age-matched control (CTL), randomly. Chick eyes are measured with ultrasonic A-scan and refractive index by retinoscope by a single-masked operator. A computer-controlled randomization is applied to assign either left or right eye for LIM treatment and contralateral eye served as untouch control. Baseline physiological data is acquired on day 7. Purified rosiglitazone (>99%) is purchased from manufacturer and dissolved in 100% Dimethyl sulfoxide (DMSO). A working rosiglitazone solution is prepared in the concentration of 5 mM in 2% DMSO, PBS solution prior use. The rosiglitazone (5 mM, 10 μL) is delivered by intravitreal injection in the LIM eye once a day for 3 consecutive days. A-10 D lens is applied soon after drug delivery. Chick eyes are measured again on day 10 to access the effect of rosiglitazone.
as §1, with “Further, the effect of rosiglitazone in lower dosages is also investigated. Briefly, chicks age” for “Chicks age”, “into 3” for “into 2”, “myopia with higher dosage (LIM with 1 mM, n=7), lens-induced myopia with lower dosage (LIM with 0.2 mM, n=7)” for “myopia (LIM)”, “control (CTL, n=2),” for “control (CTL),”, “as untouched” for “as untouch”, “rosiglitazone (1 mM, 10 μL or 0.2” for “rosiglitazone (5”
Referring to FIG. 1, the rosiglitazone treatment has shown a consistent effect on slowing myopia progression by an average of 65% using different batches of chicks when compared to independent age-matched chicks subjected to LIM treatment. The effect of myopia inhibition is reduced with dose with an exponential regression of y=1.14e^−0.57x, R^2=1) to 37% of inhibition in 1 mM drug and 21% of inhibition in 0.2 mM drug treatment group.

With `CN(CCOc1ccc(CC2SC(=O)NC2=O)cc1)c1ccccn1` (stereo not drawn) [rosiglitazone] the “toxicity in animal models” value [1] was “no sign of toxicity”, the “effect on normal growing eye or inducing hyperopia in naked eye” value (normal growing eye) was “no statistically significant effect” and the “inhibition of myopia (axial length)” value ([2]; 0.2 mM, 10 μL intravitreal injection once a day for 3 days, -10 D lens, measured day 10) was 21%. The “inhibition of myopia (axial length)” value ([2]; 1 mM, 10 μL intravitreal injection once a day for 3 days, -10 D lens, measured day 10) was 37%, the “slowing myopia progression (axial length), inhibition vs age-matched LIM chicks” value ([2]; 5 mM, 10 μL intravitreal injection once a day for 3 days, -10 D lens, measured day 10, average over different batches of chicks) was 65% and the “suppression of axial length growth” value ([2]; dose-dependent, summary statement, dose not given) was 65%.

Source: patent publication US12691106B2, “Treating refractive disorders by targeting peroxisome proliferator-activated receptor (PPAR) signaling pathway” (Centre for Eye and Vision Research Limited, priority 2023, dated 2026)
